How the values were obtained:
[1] = test system: non-transgenic TK; experiment: kanamycin selection, elimination of non-transgenic TK; format: in vivo, Taraxacum kok-saghyz; settings: ½ MS medium, data not shown
Protocol: (§1) Roots then were blotted dry on filter paper and transferred to co-culture medium (solid 1⁄2 MS medium with 200 μm acetosyringone). After 3 days of co-culture with agrobacteria, root fragments were washed sequentially with water and liquid 1⁄2 MS medium with 400 mg L^-1 Timentin, and then transferred to solid 1⁄2 MS medium with 400 mg L^-1 Timentin. […] After 3 weeks further selection, transgene events were validated in selected plants. Root fragments of TK and TB were also inoculated with A. rhizogenes […] wild type using the same method. After recovery, root fragments were transferred to 1⁄2 MS medium with 400 mg L^-1 Timentin for regeneration. Approximately 30 root fragments were used for each replicate and three replicates were used for each treatment. […] Transgene presence was validated by PCR analysis (FIGS. 5A and B) and transgene expression at the transcription level was confirmed by RT-PCR (FIGS. 6A and B) using leaf tissue.

[2] = test system: non-transgenic TB; experiment: kanamycin selection, elimination of non-transgenic TB; format: in vivo, T. brevicorniculatum; settings: ½ MS medium, data not shown
Protocol: as §1

[3] = test system: transgenic herbicide-resistant rubber-producing dandelions expressing the bar gene; experiment: glufosinate treatment of mature transgenic (bar gene) plants; format: in vivo, Taraxacum kok-saghyz and Taracum brevicorniculatum; settings: for survival rate: formulated under the brand BASTA, mature transgenic plants
Excerpt: Applicants show the successful generation of rubber-producing dandelions species, which display resistance to broad leaf herbicide glufosinate. Using similar methods as described in Example 1, transgenic plants were generated using Agrobacterium tumafaciens-mediated transformation of leaf discs or root fragments, followed by regeneration of transgenic plants, which were then acclimated and transferred to pots within greenhouses. The bar gene, was expressed singly or in combination with other genes of interest in two rubber-producing dandelion species, Taraxacum kok-saghyz and Taracum brevicorniculatum. Table 1 describes the list of gene constructs used for the generation of transgenic herbicide-resistant dandelions.
Confirmation of a transgenic event was validated by PCR and resistance confirmed through treatment of mature transgenic plants with varying doses of glufosinate (e.g., 25 mg/L, 50 mg/L, 100 mg/L, 200 mg/L, etc.) formulated under the brand BASTA®. Treatment of plants with glufosinate at 25 mg/L yielded a 100% survival rate, 50 mg/L yielded a 50% survival rate, 150 mg/L yielded a 100% survival rate, and 200 mg/L yielded a 50% survival rate.

[4] = test system: wild-type plants (dandelions); experiment: glufosinate exposure of wild-type dandelions; format: in vivo; settings: FIG. 11
Excerpt: FIG. 11: Comparison of wild-type dandelions and exemplary herbicide-resistant rubber-producing dandelions after exposure to herbicide.

Row | SMILES | kanamycin concentration effective at eliminating non-transgenic plants [1] | kanamycin concentration effective at eliminating non-transgenic plants [2] | herbicide tolerance after exposure to glufosinate ([3]; exemplary dandelions of the invention, FIG. 11) | injury as a result of exposure to glufosinate ([3]; exemplary plant of the invention, FIGS. 9-10) | survival rate ([3]; glufosinate at 25 mg/L) | survival rate ([3]; glufosinate at 50 mg/L) | survival rate ([3]; glufosinate at 150 mg/L) | survival rate ([3]; glufosinate at 200 mg/L) | injury when exposed to glufosinate [4]
1 | NC[C@H]1O[C@H](O[C@H]2[C@H](O)[C@@H](O[C@H]3O[C@H](CO)[C@@H](O)[C@H](N)[C@H]3O)[C@H](N)C[C@@H]2N)[C@H](O)[C@@H](O)[C@@H]1O [kanamycin] | 10 mg/L | 20 mg/L |  |  |  |  |  |  | 
2 | CP(=O)(O)CCC(N)C(=O)O (stereo not drawn) [glufosinate] |  |  | varying degrees herbicide tolerance | little to no injury | 100% | 50% | 100% | 50% | significant injury and/or death

— patent US20170314033A1, “HERBICIDE-RESISTANT TARAXACUM KOK-SAGHYZ AND TARAXACUM BREVICORNICULATUM” (Ohio State Innovation Foundation, priority 2016, published 2017)
